{
  "source": "patent US20240261417A1",
  "about": "“SOS1 DEGRADING AGENT AND PREPARATION METHOD THEREFOR AND APPLICATION THEREOF” (SHANGHAI LEADINGTAC PHARMACEUTICAL CO. LTD., priority 2021, published 2024)",
  "target": "T1, SOS1 protein (Homo sapiens, UniProt Q07889)",
  "T1 sequence (Q07889 1-1333)": "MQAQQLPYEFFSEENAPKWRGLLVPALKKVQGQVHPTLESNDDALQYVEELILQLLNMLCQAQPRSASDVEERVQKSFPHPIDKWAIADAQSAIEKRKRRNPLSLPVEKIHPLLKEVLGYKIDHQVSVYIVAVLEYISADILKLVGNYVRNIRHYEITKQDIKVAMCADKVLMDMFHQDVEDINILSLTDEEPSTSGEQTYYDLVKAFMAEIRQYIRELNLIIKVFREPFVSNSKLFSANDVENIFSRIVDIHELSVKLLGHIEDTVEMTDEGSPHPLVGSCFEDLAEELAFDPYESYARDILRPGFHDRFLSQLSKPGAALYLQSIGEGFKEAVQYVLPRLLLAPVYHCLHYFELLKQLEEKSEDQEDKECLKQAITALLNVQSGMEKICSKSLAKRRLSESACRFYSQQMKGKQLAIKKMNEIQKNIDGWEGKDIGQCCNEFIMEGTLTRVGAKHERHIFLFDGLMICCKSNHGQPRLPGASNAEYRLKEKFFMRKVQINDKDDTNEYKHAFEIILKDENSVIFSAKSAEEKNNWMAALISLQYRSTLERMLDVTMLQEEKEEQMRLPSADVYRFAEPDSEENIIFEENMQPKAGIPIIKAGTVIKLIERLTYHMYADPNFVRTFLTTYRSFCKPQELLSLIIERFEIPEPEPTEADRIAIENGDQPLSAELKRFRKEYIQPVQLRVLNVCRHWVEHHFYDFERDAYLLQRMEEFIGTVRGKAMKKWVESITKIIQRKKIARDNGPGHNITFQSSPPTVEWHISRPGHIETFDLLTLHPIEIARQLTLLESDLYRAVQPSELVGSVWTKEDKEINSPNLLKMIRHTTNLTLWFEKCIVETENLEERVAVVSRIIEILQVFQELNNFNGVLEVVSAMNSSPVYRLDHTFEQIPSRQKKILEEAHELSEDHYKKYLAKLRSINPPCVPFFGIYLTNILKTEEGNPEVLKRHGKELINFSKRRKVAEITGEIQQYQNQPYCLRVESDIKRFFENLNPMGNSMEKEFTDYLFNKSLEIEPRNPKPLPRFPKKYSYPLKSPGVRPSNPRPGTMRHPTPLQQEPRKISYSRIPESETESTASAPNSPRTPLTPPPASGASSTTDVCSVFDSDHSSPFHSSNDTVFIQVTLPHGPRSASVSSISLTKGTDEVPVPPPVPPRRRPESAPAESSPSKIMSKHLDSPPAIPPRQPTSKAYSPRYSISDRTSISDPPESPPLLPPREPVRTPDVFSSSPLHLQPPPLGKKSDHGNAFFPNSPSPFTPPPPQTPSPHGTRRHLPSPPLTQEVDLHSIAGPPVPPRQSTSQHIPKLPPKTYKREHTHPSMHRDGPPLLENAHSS",
  "assay": "SOS1 degradation assay (Western blot), NCI-H358 cells",
  "format": "cell-based",
  "parameters": "The degradation of SOS1 by the compounds was investigated on KRAS G12C mutant human non-small cell lung cancer cells NCI-H358; host or cells: NCI-H358 (human cancer cell lines)",
  "conditions": "SOS1 degradation, NCI-H358 cells, 24 h, Western blot; for DC50: read-out: NCI-H358 (G12C) DC50; for Dmax: read-out: NCI-H358 (G12C) Dmax",
  "procedure": "The specific procedures were as follows:\n0.95 mL of cells were seeded into each well of a 24-well cell culture plate to achieve a cell density of 5×10^5 cells/well; the cell plate was incubated in an incubator at 37° C. with 5% CO2 overnight. Then 50 μL of the compound solution after dilution was added to each of the wells with the corresponding cells, so that the final concentration of the compound was in a range of 0.03-3000 nM. […] After dosing, the cell plate was incubated in an incubator at 37° C. with 5% CO2 for 24 h. […] After the plate was left to stand on ice for 30 min, the protein lysate in each well was transferred to a 1.5 mL centrifuge tube and centrifuged at 15000 g for 20 min at 4° C. The cell lysate supernatant after centrifugation was cryopreserved at −80° C. for testing and was used for determining the degradation level of the SOS1 protein by a WB method. The concentration of total protein in the cell lysate supernatant was determined using the BCA Protein Quantification Kit (Tiangen, PA115-02).\nThe concentration of total protein in the cell lysate was determined by BCA. The total protein was adjusted to 0.5 μg/μL with PBS and 5× SDS-PAGE protein loading buffer (Beyotime, P0015L), incubated in a water bath at 100° C. for 15 min, incubated in an ice bath on ice for 5 min, centrifuged at 14000 g for 1 min at 4° C., and mixed well as a loading sample for WB. Protein electrophoresis was performed on a precast gel (KeyGEN, KGMGO10W15) with a loading volume of 10 μL (total protein: 5 μg) using a Tris-MOPS-SDS running solution (Adamas, P1598253) at a constant voltage of 120 V for 55 min. After the electrophoresis, the protein on the gel strip was transferred to a PVDF membrane at a constant current of 250 mA for 65 min. After the membrane transfer, the membrane was incubated in 1× QuickBlock blocking buffer (Beyotime, P0235) for 30 min at room temperature. […] The protein map was subjected to gray value analysis by the chemiluminescence imaging system from Clinx. […] Then the degradation rate was calculated by comparing the gray correction value with the gray correction value of the control group. Then nonlinear curve fitting was performed by GraphPad Prism 8 in the logarithmic concentration-inhibition rate to obtain the DC50 and Dmax values of the compounds.",
  "data": [
    {"smiles": "COc1cc2nc(C)nc(N[C@H](C)c3cc(N)cc(C(F)(F)F)c3)c2cc1[C@H]1CC[C@H](C(=O)N(C)CC2CCC3(CC2)CCN(C(=O)c2ccc(Cl)c(N4CCC(=O)NC4=O)c2)CC3)CC1", "note": "[Example 9, (1R,4R)-4-(4-(((R)-1-(3-amino-5-(trifluoromethyl)phenyl)ethyl)amino)-7-methoxy-2-methylquinazolin-6-yl)-N-((3-(4-chloro-3-(2,4-dioxotetrahydropyrimidin-1(2H)-yl)benzoyl)-3-azaspiro[5.5]undecane-9-yl)methyl)-N-methylcyclohexane-1-carboxamide]", "values": [
      {"measurement": "DC50", "value": "1000 to 10000", "unit": "nM"},
      {"measurement": "Dmax", "value": "< 30", "unit": "%"}
    ]},
    {"smiles": "COc1cc2nc(C)nc(N[C@H](C)c3cc(N)cc(C(F)(F)F)c3)c2cc1[C@H]1CC[C@H](C(=O)N2CCN(CC3CCN(C(=O)COc4ccc(Cl)c(N5CCC(=O)NC5=O)c4)CC3)CC2)CC1", "note": "[Example 37, 1-(5-(2-(4-((4-((1R,4R)-4-(4-(((R)-1-(3-amino-5-(trifluoromethyl)phenyl)ethyl)amino)-7-methoxy-2-methylquinazolin-6-yl)cyclohexane-1-carbonyl)piperazin-1-yl)methyl)piperidin-1-yl)-2-oxoethoxy)-2-chlorophenyl)dihydropyrimidine-2,4(1H,3H)-dione]", "values": [
      {"measurement": "DC50", "value": "1000 to 10000", "unit": "nM"},
      {"measurement": "Dmax", "value": "< 30", "unit": "%"}
    ]},
    {"smiles": "COc1cc2nc(C)nc(N[C@H](C)c3cc(N)cc(C(F)(F)F)c3)c2cc1O[C@H]1CC[C@H](C(=O)N2CCN(CC3CCC4(CC3)CCN(C(=O)c3ccc(Cl)c(N5CCC(=O)NC5=O)c3)CC4)CC2)CC1", "note": "[Example 31, 1-(5-(9-((4-((1R,4R)-4-((4-(((R)-1-(3-amino-5-(trifluoromethyl)phenyl)ethyl)amino)-7-methoxy-2-methylquinazolin-6-yl)oxo)cyclohexane-1-carbonyl)piperazin-1-yl)methyl)-3-azaspiro[5.5]undecane-3-carbonyl)-2-chlorophenyl)dihydropyrimidine-2,4(1H,3H)-dione]", "values": [
      {"measurement": "DC50", "value": "1000 to 10000", "unit": "nM"},
      {"measurement": "Dmax", "value": "< 30", "unit": "%"}
    ]},
    {"smiles": "CNCc1ccccc1-c1csc([C@@H](C)Nc2nc(C)nc3cc(OC)c([C@H]4CC[C@H](C(=O)N5CCN(CC6CCC7(CC6)CCN(C(=O)c6ccc(F)c(N8CCC(=O)NC8=O)c6)CC7)CC5)CC4)cc23)c1", "note": "[Example 74, 1-(2-fluoro-5-(9-((4-((1R,4R)-4-(7-methoxy-2-methyl-4-(((R)-1-(4-(2-((methylamino)methyl)phenyl)thien-2-yl)ethyl)amino)quinazolin-6-yl)cyclohexane-1-carbonyl)piperazin-1-yl)methyl)-3-azaspiro[5.5]undecane-3-carbonyl)phenyl)dihydropyrimidine-2,4(1H,3H)-dione]", "values": [
      {"measurement": "DC50", "value": "< 50", "unit": "nM"},
      {"measurement": "Dmax", "value": "80 to 100", "unit": "%"}
    ]},
    {"smiles": "COc1cc2nc(C)nc(N[C@H](C)c3cc(N)cc(C(F)(F)F)c3)c2cc1[C@H]1CC[C@H](C(=O)N2CCN(CC3CCN(C(=O)c4ccc(Cl)c(N5CCC(=O)NC5=O)c4)CC3)CC2)CC1", "note": "[Example 13, 1-(5-(4-((4-((1R,4R)-4-(4-(((R)-1-(3-amino-5-(trifluoromethyl)phenyl)ethyl)amino)-7-methoxy-2-methylquinazolin-6-yl)cyclohexane-1-carbonyl)piperazin-1-yl)methyl)piperidine-1-carbonyl)-2-chlorophenyl)dihydropyrimidine-2,4(1H,3H)-dione]", "values": [
      {"measurement": "DC50", "value": "1000 to 10000", "unit": "nM"},
      {"measurement": "Dmax", "value": "30 to 50", "unit": "%"}
    ]},
    {"smiles": "COc1cc2nc(C)nc(N[C@H](C)c3cc(N)cc(C(F)(F)F)c3)c2cc1[C@H]1CC[C@H](C(=O)N2CCC(CCCC3CCN(C(=O)c4ccc(Cl)c(N5CCC(=O)NC5=O)c4)CC3)CC2)CC1", "note": "[Example 14, 1-(5-(4-(3-(1-((1R,4R)-4-(4-(((R)-1-(3-amino-5-(trifluoromethyl)phenyl)ethyl)amino)-7-methoxy-2-methylquinazolin-6-yl)cyclohexane-1-carbonyl)piperidin-4-yl)propyl)piperidine-1-carbonyl)-2-chlorophenyl)dihydropyrimidine-2,4(1H,3H)-dione]", "values": [
      {"measurement": "DC50", "value": "< 50", "unit": "nM"},
      {"measurement": "Dmax", "value": "50 to 80", "unit": "%"}
    ]},
    {"smiles": "Cc1nc(N[C@H](C)c2cc(N)cc(C(F)(F)F)c2)c2cc(-c3ccn(CCCN(C)CC4CCC5(CC4)CCN(C(=O)c4ccc(Cl)c(N6CCC(=O)NC6=O)c4)CC5)c(=O)c3)c(C)cc2n1", "note": "[Example 42, (R)-1-(5-(9-(((3-(4-(4-((1-(3-amino-5-(trifluoromethyl)phenyl)ethyl)amino)-2,7-dimethylquinazolin-6-yl)-2-oxopyridin-1(2H)-yl)propyl)(methyl)amino)methyl)-3-azaspiro[5.5]undecane-3-carbonyl)-2-chlorophenyl)dihydropyrimidine-2,4(1H,3H)-dione]", "values": [
      {"measurement": "DC50", "value": "1000 to 10000", "unit": "nM"},
      {"measurement": "Dmax", "value": "30 to 50", "unit": "%"}
    ]},
    {"smiles": "COc1cc2nc(C)nc(N[C@H](C)c3cc(N)cc(C(F)(F)F)c3)c2cc1[C@H]1CC[C@H](C(=O)N2CCC(COCC3CCN(C(=O)c4ccc(Cl)c(N5CCC(=O)NC5=O)c4)CC3)CC2)CC1", "note": "[Example 76, 1-(5-(4-(((1-((1R,4R)-4-(4-(((R)-1-(3-amino-5-(trifluoromethyl)phenyl)ethyl)amino)-7-methoxy-2-methylquinazolin-6-yl)cyclohexane-1-carbonyl)piperidin-4-yl)methoxy-d2)methyl)piperidine-1-carbonyl)-2-chlorophenyl)dihydropyrimidine-2,4(1H,3H)-dione]", "values": [
      {"measurement": "DC50", "value": "< 50", "unit": "nM"}
    ]},
    {"smiles": "COc1cc2nc(C)nc(N[C@H](C)c3cc(N)cc(C(F)(F)F)c3)c2cc1[C@H]1CC[C@H](C(=O)N(C)CCOCC#CC2CCN(C(=O)c3ccc(Cl)c(N4CCC(=O)NC4=O)c3)CC2)CC1", "note": "[Example 26, (1R,4R)-4-(4-(((R)-1-(3-amino-5-(trifluoromethyl)phenyl)ethyl)amino)-7-methoxy-2-methylquinazolin-6-yl)-N-(2-((3-(1-(4-chloro-3-(2,4-dioxotetrahydropyrimidin-1(2H)-yl)benzoyl)piperidin-4-yl)prop-2-yn-1-yl)oxo)ethyl)-N-methylcyclohexane-1-carboxamide]", "values": [
      {"measurement": "NCI-H358 (G12C) Dmax", "value": "D (when Dmax (%)<30, the level was D)"},
      {"measurement": "DC50", "value": "1000 to 10000", "unit": "nM"}
    ]}
  ]
}
